{"source": "patent US20180055816A1", "about": "“PYRANONAPHTHOQUINONE COMPOUNDS AND METHODS OF USE THEREOF” (University of Kentucky Research Foundation, priority 2016, published 2018)", "key": {"p70S6K phosphorylation": {"test_system": "p70S6K phosphorylation", "assay": "p70S6K phosphorylation in HCT116 cells (Western blot)", "format": "cell-based, human", "conditions": "HCT116, 12 h; 2 μM FB or UCF76-A, 100 nM rapamycin, 0.5 μM AZD8055", "description": "(§1) HCT116 cells were treated with 1 μM MK2206 and 100 nM PD0325901 alone and in combination, 100 nM rapamycin, 0.5 μM AZD8055, 2 μM UCF76-A or 2 μM FB for 12 h followed by Western blot analysis for the indicated proteins.\n(§2) Cells were lysed in NP-40 lysis buffer (50 mM Tris-HCl, pH 7.5, 150 mM NaCl, 1 mM EDTA, 1% NP-40, 10% glycerol, protease and phosphatase inhibitor cocktail). Western blot analysis were performed using equivalent total protein loadings as described previously. For immunoprecipitation, the cell lysates were incubated with the indicated antibody overnight followed by incubation with a 50% slurry of protein G sepharose beads for 3 h at 4° C. The beads were washed three times with the lysis buffer, and the immunoprecipitated protein complexes were resuspended in 2× Laemmli sample buffer followed by western blot analysis."}, "AKT phosphorylation": {"test_system": "AKT phosphorylation", "assay": "AKT phosphorylation in HCT116 cells (Western blot)", "format": "cell-based, human", "conditions": "HCT116, 12 h; 2 μM FB or UCF76-A, 0.5 μM AZD8055, 1 μM MK2206", "description": "as §1, §2"}, "S6 phosphorylation": {"test_system": "S6 phosphorylation", "assay": "S6 phosphorylation in HCT116 cells (Western blot)", "format": "cell-based, human", "conditions": "HCT116, 12 h; 2 μM FB or UCF76-A, 100 nM rapamycin, 0.5 μM AZD8055", "description": "as §1, §2"}, "4E-BP1 phosphorylation [1]": {"test_system": "4E-BP1 phosphorylation", "assay": "Inhibition of 4E-BP1 phosphorylation in HCT116 cells (Western blot)", "format": "cell-based, human", "conditions": "for inhibition of 4E-BP1 phosphorylation: 12 h", "description": "(§3) Compounds that pass this single dose filter are then tested in a CRC (HCT116) in vitro cytotoxicity assay and, in parallel, an in vitro assay to assess propensity for intracellular reactive oxygen species (ROS) production using the redox sensitive probe CeIIROX® Deep Red reagent (Invitrogen) by flow cytometry analysis (47).\nas §2"}, "[2]": {"test_system": "intracellular reactive oxygen species (ROS)", "assay": "Intracellular ROS production, CellROX Deep Red flow cytometry, HCT116 cells", "format": "cell-based, human", "description": "as §3\nThe ROS production was determined using the CellROX Deep Red Flow Cytometry Assay Kit according to the manufacturer's protocol (Life Technologies). Briefly, cells were treated with 2 μM of the indicated compounds or DMSO as control for 1 h. After treatment, cells were incubated with 0.5 μM of CellROX Deep Red reagent for 1 h at 37° C., washed twice with PBS and immediately analyzed by a FACScan flow cytometer. For the measurement of cellular H2O2 level, cells were treated with 2 μM of the indicated compounds for 5 h."}, "HCT116 cells [3]": {"test_system": "HCT116 cells", "assay": "Cell growth / cytotoxicity in HCT116 cells", "format": "cell-based, human", "conditions": "Homo sapiens, HCT-116; colorectal cancer cell line HCT116", "description": "as §3\n(§4) Cell growth was assessed as described previously. Briefly, 5×10^4 cells were seeded in 6-well plates in triplicates. After 24 h, cells were treated with the indicated compounds and incubated at 37° C. The cells were cultured for 3 days and the number of viable cells was counted using the Vi-CELL XR 2.03 (Beckman Coulter, Brea, Calif.). For apoptosis, cells were analyzed by flow cytometry using the Annexin V-FITC Apoptosis Detection Kit according to the manufacturer's protocol (BD Biosciences, San Jose, Calif.)."}, "HCT116 xenograft tumors": {"test_system": "HCT116 xenograft tumors", "assay": "HCT116 colon cancer xenograft in nude mice", "format": "in vivo", "conditions": "14 mg/kg intraperitoneal, daily five days a week, 2 weeks", "description": "(§5) Male athymic nude mice (5-6 weeks old) were purchased from Taconic (Hudson, N.Y., USA). Experiments were carried out under a protocol approved by the University of Kentucky Institutional Animal Care and Use Committee. HCT116 and DLD-1 xenograft tumors were established by subcutaneously injecting 3×10^6 cells in a 1:1 mixture of media and Matrigel (BD Biosciences) into the right flank. For efficacy studies, mice were randomized among control and treated groups (n=8 per group) when tumors were well-established (˜120 mm^3). Compound 14 was prepared freshly in saline and administered by intraperitoneal injection at 14 mg/kg once per day, Mon-Fri per week. Control mice received saline solution. Tumor dimensions were measured using a caliper and tumor volumes were calculated as mm^3=π/6× larger diameter×(smaller diameter)^2. Tumors were excised and snap frozen in liquid nitrogen, homogenized in 2% SDS lysis buffer and then processed for Western blot analysis as described previously^5."}, "[4]": {"assay": "Tolerability in tumor-bearing nude mice (body weight, maximum tolerated dose)", "format": "in vivo", "description": "Mice bearing HCT116 or DLD-1 CRC xenograft tumors were treated with compound 14 at 14 mg/kg or with vehicle control once per day for 5 consecutive days each week. The mouse body weight was measured twice per week in control and treated groups using a weighing scale. The results represent the mean body weight±s.e.m. (n=8 mice/group). *P>0.05 for 14 versus vehicle control in HCT116 or DLD-1 xenograft tumors. Statistical significance was determined by the Student's t-test.\nas §5, with “Tumors were excised and snap frozen in liquid nitrogen, homogenized in 2% SDS lysis buffer and then processed for Western blot analysis as described previously^5.” left out"}, "DLD-1 xenograft tumors": {"test_system": "DLD-1 xenograft tumors", "assay": "DLD-1 colon cancer xenograft in nude mice", "format": "in vivo", "conditions": "14 mg/kg intraperitoneal, daily five days a week, 2 weeks", "description": "as §5"}, "4E-BP1 phosphorylation [5]": {"test_system": "4E-BP1 phosphorylation", "assay": "Western blot of xenograft tumor extracts", "format": "in vivo, mice", "conditions": "HCT116 or DLD-1 xenograft tumors, 6 h after the final treatment, 14 mg/kg", "description": "FIGS. 34A-B. FB induces ROS production to repress 4E-BP1 phosphorylation and tumor growth in vivo. (A) Western blot analysis of representative tumors collected from mice in FIG. 32 6 h after the final treatment with 14 or vehicle control. (B) A proposed model for the anticancer mechanism of FB through targeting Prx1/Grx3 to induce ROS accumulation leading to inhibition of mTORC1/4E-BP1-mediated tarnaltion.\nas §5"}, "HCT116 cells [6]": {"test_system": "HCT116 cells", "assay": "Apoptosis assay (propidium iodide/Annexin V flow cytometry) in HCT116 cells", "format": "cell-based, human", "conditions": "HCT116, 72 hours", "description": "(A) HCT116 cells were treated with different concentrations of FB and 12 for 12 hours. Cell lysates were precipitated with m^7GTP sepharose beads followed by Western blot analysis for the indicated proteins. (B) Inhibition of cap-dependent translation activity in HCT116 cells that were treated with the indicated compounds or DMSO as control for 12 hours was determined and analyzed as in FIG. 10A. (C) and (D) HCT116 cells were treated with different concentrations of FB and 12 for 72 hours. Apoptotic cells were analyzed by propidium iodide/Annexin V staining and flow cytometry (C). The results are expressed as the increased levels of apoptosis (D) by subtracting each of the DMSO-treated controls. All graphic data are presented as mean±s.e.m. (n=3 technical replicates per condition). *P<0.001 for 12 versus FB. Statistical significance was determined by the Student's t-test.\nas §4"}, "[7]": {"test_system": "cap-dependent translation", "assay": "Cap-dependent translation bicistronic luciferase reporter assay in HCT116 cells", "format": "cell-based, human", "conditions": "12 h"}, "Prx1": {"target": "T1, Prx1 (Homo sapiens, UniProt Q06830)", "T1 sequence (Q06830 1-199)": "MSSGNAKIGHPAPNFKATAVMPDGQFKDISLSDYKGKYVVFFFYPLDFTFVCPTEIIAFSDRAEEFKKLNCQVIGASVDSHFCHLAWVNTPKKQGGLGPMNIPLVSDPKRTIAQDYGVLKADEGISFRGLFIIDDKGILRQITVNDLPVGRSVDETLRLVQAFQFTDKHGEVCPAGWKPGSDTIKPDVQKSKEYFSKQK", "assay": "Prx1 catalytic activity inhibition", "format": "biochemical", "conditions": "recombinant Prx1, 1 hour incubation", "description": "The recombinant Prx1 protein was incubated with the indicated concentration of FB, 12, or conoidin A for 1 hour. Data are presented as mean±s.e.m. (n=3 technical replicates per condition). […]. Statistical significance was determined by the Student's t-test.\nPrx1 and Grx3 are antioxidant enzymes known to regulate oxidative stress. Prx1 catalyzes peroxide reduction of H2O2, whereas Grx3 functions as glutathione (GSH)-dependent oxidoreductase by participating in the conversion of reduced GSH to oxidized glutathione disulfide (GSSG). […] While Grx3 biochemical assays are lacking, FB and active analogs could lead to a decrease in GSH levels and an increase in GSSG levels in HCT116 cells (FIGS. 23A-B). As antioxidant enzymes utilize cysteine-containing active sites to reduce various cellular peroxide or disulfide substrates, the role of Prx1/Grx3 cysteines in FB ligand-binding was assessed through replacing their cysteines to alanines. […] Finally, mass spectrometry analysis confirmed the covalent modification of Prx1 and Grx3 by FB at these specific target sites. These cumulative studies provide strong validation of Prx1 and Grx3 as the predominate molecular targets of PNQs in cancer cells."}}, "note": "Entries after “also recorded” stand apart in the source; their conditions may differ."}
{"smiles": "COc1ccc(-c2ccc3c(N4CCOC[C@@H]4C)nc(N4CCOC[C@@H]4C)nc3n2)cc1CO", "note": "[AZD8055]", "values": [{"measurement": "inhibition of p70S6K phosphorylation", "setting": "p70S6K phosphorylation", "result": "potently inhibited"}, {"measurement": "inhibition of AKT phosphorylation", "setting": "AKT phosphorylation", "result": "inhibited"}, {"measurement": "inhibition of S6 phosphorylation", "setting": "S6 phosphorylation", "result": "potently inhibited"}]}
{"smiles": "NC1(c2ccc(-c3nc4ccn5c(=O)[nH]nc5c4cc3-c3ccccc3)cc2)CCC1", "note": "[MK2206]", "values": [{"measurement": "inhibition of AKT phosphorylation", "setting": "AKT phosphorylation", "result": "effective inhibition"}, {"measurement": "inhibition of 4E-BP1 phosphorylation", "setting": "4E-BP1 phosphorylation [1]", "result": "negligible modulation"}]}
{"smiles": "C[C@@H]1CC(=O)[C@@H](O)[C@]2(O1)O[C@@H]1CC(=O)O[C@@H]1C1=C2C(=O)c2c(O)cccc2C1=O", "note": "[GC, griseusen C]", "values": [{"measurement": "ROS production compared with b47", "setting": "[2]", "result": "slightly lower"}, {"measurement": "inhibition of 4E-BP1 phosphorylation", "setting": "4E-BP1 phosphorylation [1]", "result": "notable inhibition"}, {"measurement": "IC50", "setting": "HCT116 cells [3]", "result": 127, "unit": "nM"}]}
{"smiles": "O=C1C[C@H]2O[C@@H](CCC(F)(F)F)C3=C(C(=O)c4c(Cl)ccc(OP(=O)(O)O)c4C3=O)[C@H]2O1", "note": "[Compound 14, (3aR,5S,11bR)-10-Chloro-2,6,11-trioxo-5-(3,3,3-trifluoropropyl)-3,3a,5,6,11,11b-hexahydro-2H-benzo[g]furo[3,2-c]isochromen-7-yl dihydrogen phosphate]", "values": [{"measurement": "tumor reduction", "setting": "HCT116 xenograft tumors", "result": 64, "unit": "%"}, {"measurement": "body weight loss", "setting": "[4]; 14 mg/kg once per day, 5 days each week, HCT116 or DLD-1 xenograft mice", "result": "without significant weight loss; also recorded: does not cause significant weight loss"}, {"measurement": "MTD", "setting": "[4]; male, athymic nude, mouse, in vivo, intraperitoneal, 14 mg/kg, nude mice", "result": 14, "unit": "mg/kg"}, {"measurement": "tumor reduction", "setting": "DLD-1 xenograft tumors", "result": 56, "unit": "%"}, {"measurement": "aqueous solubility", "setting": "Aqueous solubility", "result": "aqueous soluble"}, {"measurement": "4E-BP1 phosphorylation in tumor extracts", "setting": "4E-BP1 phosphorylation [5]", "result": "inhibition of 4E-BP1 phosphorylation"}]}
{"smiles": "O=C1C[C@H]2O[C@@H](CCC(F)(F)F)C3=C(C(=O)c4c(Cl)ccc(O)c4C3=O)[C@H]2O1", "note": "[Compound 12, (3aR,5S,11bR)-10-Chloro-7-hydroxy-5-(3,3,3-trifluoropropyl)-3,3a,5,11b-tetrahydro-2H-benzo[g]furo[3,2-c]isochromene-2,6,11-trione]", "values": [{"measurement": "induction of apoptosis compared with FB", "setting": "HCT116 cells [6]", "result": "more potent that FB"}, {"measurement": "inhibition of cap-dependent translation", "setting": "[7]", "result": "more potent that FB"}, {"measurement": "fold more potent than FB as an inhibitor of 4E-BP1 phosphorylation", "setting": "4E-BP1 phosphorylation [1]; relative to FB", "result": "up to 4 fold"}, {"measurement": "inhibition of Prx1 catalytic activity", "setting": "Prx1", "result": "potently inhibit"}]}
